Reference: the NIST ThermoML archive (doi:10.1016/j.fluid.2004.10.027)
Numbers after ± are expanded uncertainties.

How the values were obtained:
[1] = refractive index (Na D-line) (dimensionless); conditions: 298.15 K; 101.33 kPa; Liquid; Standard Abbe refractometry
[2] = Liquid; for mass density: 298.15 K, 101.33 kPa

Row | Compound | refractive index [1] | mass density [2] [kg/m3] | other results
1 | COCCOC [1,2-dimethoxyethane] | 1.3781 ± 0.0007 | 863.7 ± 1.8 | vapor or sublimation pressure ([2]; 357.05 K): 95.8 ± 4.8 kPa
2 | Cc1ccccc1C [1,2-dimethylbenzene] | 1.503 ± 0.0007 | 875.9 ± 1.7 | vapor or sublimation pressure ([2]; 415.55 K): 95.8 ± 4.8 kPa
3 | Cc1cccc(C)c1 [1,3-dimethylbenzene] | 1.4946 ± 0.0007 | 860.1 ± 1.8 | vapor or sublimation pressure ([2]; 410.35 K): 95.8 ± 4.8 kPa
4 | Cc1ccc(C)cc1 [1,4-dimethylbenzene] | 1.4933 ± 0.0007 | 865.6 ± 4.7 | vapor or sublimation pressure ([2]; 409.35 K): 95.8 ± 4.8 kPa
5 | O=C1CCCCC1 [cyclohexanone] | 1.451 ± 0.0007 | 945.1 ± 1.1 | vapor or sublimation pressure ([2]; 426.45 K): 95.8 ± 4.8 kPa
6 | CCCCCCCCCC [decane] | 1.4097 ± 0.0007 | 726.4 ± 2.9 | vapor or sublimation pressure ([2]; 445.25 K): 95.8 ± 4.9 kPa
7 | C1CCOC1 [tetrahydrofuran] | 1.4072 ± 0.0007 | 889.2 ± 4.7 | vapor or sublimation pressure ([2]; 337.55 K): 95.8 ± 4.8 kPa
